Experimental data reported in article PMC10447463, “Data-mining unveils structure–property–activity correlation of viral infectivity enhancing self-assembling peptides” (Nature Communications, 2023).
Where two headings read alike, the source gives them in different places.

Tests used:
[1] = format: physicochemical; parameters: key to Fibril / Fibril Formation / TEM 2cat / Fibril: 1 = fibrils present; 0 non-fibrillar structures; settings: for Fibril / Fibril Formation: 1 mg/mL, uranyl acetate stain, qualitative
[2] = format: physicochemical; settings: for ThT Cat. / ThT-Fluorescence (categorical): ThT-active if fluorescence at least twice the control
Summary of the method: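 Fibrils (1 mg/mL solution) were mixed with 50 µM ThT in PBS for 15 min at RT, and fluorescence was read at λex 440/λem 488 nm against a PBS blank, as a triplicate mean ± SD. Zeta potential came from electrophoretic mobility (Smoluchowski) after 1 d aggregation at 1 mg/mL in PBS pH 7.4, diluted into 1 mM KCl.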

[3] = Conversion rate (CR) assay with fluorescamine; format: physicochemical; parameters: key to CR: % = 100−100×filtrate/original fluorescence intensity
Summary of the method: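 1 mg/mL PNF solutions lyophilized and powders measured by diamond ATR FT-IR (2 cm^-1 resolution, 64 scans); β-sheet content calculated per a prior method. For CR, PNF solution centrifuged through 3 kDa MWCO filter (16200 x g, 4 °C, 45 min); filtrate and unfiltered sample lyophilized, dissolved in DMSO, reacted with fluorescamine.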

[4] = Fig S10 panel D, fibril category by TEM
[5] = TEM, 1 = fibrils present, 0 = non-fibrillar
[6] = TEM, 1 = fibrils present, 0 = non-fibrillar structures
[7] = category: fibrils present or non-fibrillar
[8] = ThT fluorescence category, 1 if Rel. ThT >2
[9] = Fig. S7 panel B, conversion rate, fluorescamine assay
[10] = conversion rate, fluorescamine assay
[11] = FigS12 panel A, fibril category by TEM

| Substance | TEM 2cat [1, 4] | Fibril ([1]; Fig S10 panel E) | Fibril / Fibril Formation ([1]; TEM) | Fibril [1, 5] | Fibril [1, 6] | TEM 2cat [1, 7] | Tht category (> 2 to blank = +) ([2]; Fig S10 panel D) | ThT Cat. ([2]; Fig S10 panel E) | ThT Cat, ([2]; ThT category, 1 if Rel. ThT >2) | ThT Cat. [2, 8] | ThT Cat. / ThT-Fluorescence (categorical) [2] | CR / % [3, 9] | CR [3, 10] | ThT Cat. ([2]; ThT category, 1 if Rel. ThT >2) | TEM 2cat [1, 11] | Fibril ([1]; FigS12 panel B, TEM) | Tht category (> 2 to blank = +) ([2]; FigS12 panel A) | ThT Cat, ([2]; FigS12 panel B) | further results |
| --- | --- | --- | --- | --- | --- | --- | --- | --- | --- | --- | --- | --- | --- | --- | --- | --- | --- | --- | --- |
| KFKFQFFF | 1 | 1 | 1 | 1 | 1 | 1 | 1 (ThT. Cat is 1, if Rel. ThT >2) | 1 (ThT. Cat is 1, if Rel. ThT >2) | 1 (ThT. Cat is 1, if Rel. ThT >2) | 1 (ThT. Cat is 1, if Rel. ThT >2) | 1 (ThT. Cat is 1, if Rel. ThT >2) | 98.5% | 98.46 | – | – | – | – | – | – |
| CKFKQFFNMWQ | – | 1 | 1 | 1 | 1 | 1 | 1 (ThT. Cat is 1, if Rel. ThT >2) | 1 (ThT. Cat is 1, if Rel. ThT >2) | 1 (ThT. Cat is 1, if Rel. ThT >2) | – | 1 (ThT. Cat is 1, if Rel. ThT >2) | 98.7% | 98.72 | 1 (ThT. Cat is 1, if Rel. ThT >2) | – | – | – | – | TEM 2cat ([1]; Fig S10 panel D): 1 |
| CSISIQINM | 1 | 1 | 1 | 1 | 1 | 1 | 1 (ThT. Cat is 1, if Rel. ThT >2) | 1 (ThT. Cat is 1, if Rel. ThT >2) | 1 (ThT. Cat is 1, if Rel. ThT >2) | 1 (ThT. Cat is 1, if Rel. ThT >2) | 1 (ThT. Cat is 1, if Rel. ThT >2) | 86% | 86 | – | – | – | – | – | – |
| KIKIKIQI | 1 | 1 | 1 | 1 | 1 | – | 1 (ThT. Cat is 1, if Rel. ThT >2) | 1 (ThT. Cat is 1, if Rel. ThT >2) | 1 (ThT. Cat is 1, if Rel. ThT >2) | 1 (ThT. Cat is 1, if Rel. ThT >2) | 1 (ThT. Cat is 1, if Rel. ThT >2) | 80% | 80 | – | 1 | 1 | 1 (ThT. Cat is 1, if Rel. ThT >2) | 1 (ThT. Cat is 1, if Rel. ThT >2) | – |
| CKAKAQA | 0 | 0 | 0 | 0 | 0 | – | 0 (ThT-inactive (N-Fold <2)) | 0 (ThT-inactive (N-Fold <2)) | 0 (ThT-inactive (N-Fold <2)) | 0 (ThT-inactive (N-Fold <2)) | 0 (ThT-inactive (N-Fold <2)) | 44% | 44 | – | 0 | 0 | 0 (ThT-inactive (N-Fold <2)) | 0 (ThT-inactive (N-Fold <2)) | – |
| CKFKFQFW | 1 | 1 | 1 | 1 | 1 | 1 | 0 (ThT-inactive (N-Fold <2)) | 0 (ThT-inactive (N-Fold <2)) | 0 (ThT-inactive (N-Fold <2)) | – | 0 (ThT-inactive (N-Fold <2)) | 98.7% | 98.71 | 0 (ThT-inactive (N-Fold <2)) | – | – | – | – | – |
| HHHHKIKIKIKIWWWW | 0 | 0 | 0 | 0 | 0 | 0 | 1 (ThT. Cat is 1, if Rel. ThT >2) | 1 (ThT. Cat is 1, if Rel. ThT >2) | 1 (ThT. Cat is 1, if Rel. ThT >2) | 1 (ThT. Cat is 1, if Rel. ThT >2) | 1 (ThT. Cat is 1, if Rel. ThT >2) | 96% | 96 | – | – | – | – | – | – |
| CKFKQFF | – | 0 | 0 | 0 | 0 | – | 0 (ThT-inactive (N-Fold <2)) | 0 (ThT-inactive (N-Fold <2)) | 0 (ThT-inactive (N-Fold <2)) | – | 0 (ThT-inactive (N-Fold <2)) | 90% | 90.05 | 0 (ThT-inactive (N-Fold <2)) | 0 | 0 | 0 (ThT-inactive (N-Fold <2)) | 0 (ThT-inactive (N-Fold <2)) | TEM 2cat ([1]; Fig S10 panel D): 0 |
| CKIKIQI | 1 | 1 | 1 | 1 | 1 | 1 | 1 (ThT. Cat is 1, if Rel. ThT >2) | 1 (ThT. Cat is 1, if Rel. ThT >2) | 1 (ThT. Cat is 1, if Rel. ThT >2) | 1 (ThT. Cat is 1, if Rel. ThT >2) | 1 (ThT. Cat is 1, if Rel. ThT >2) | 54% | 54 | – | – | – | – | – | – |
| EIKIQINM | 1 | 1 | 1 | 1 | 1 | – | 1 (ThT. Cat is 1, if Rel. ThT >2) | 1 (ThT. Cat is 1, if Rel. ThT >2) | 1 (ThT. Cat is 1, if Rel. ThT >2) | – | 1 (ThT. Cat is 1, if Rel. ThT >2) | 50.7% | 50.72 | 1 (ThT. Cat is 1, if Rel. ThT >2) | 1 | 1 | 1 (ThT. Cat is 1, if Rel. ThT >2) | 1 (ThT. Cat is 1, if Rel. ThT >2) | – |
| CKAKAQANM | – | 0 | 0 | 0 | 0 | – | 0 (ThT-inactive (N-Fold <2)) | 0 (ThT-inactive (N-Fold <2)) | 0 (ThT-inactive (N-Fold <2)) | – | 0 (ThT-inactive (N-Fold <2)) | 47.9% | 47.87 | 0 (ThT-inactive (N-Fold <2)) | 0 | 0 | 0 (ThT-inactive (N-Fold <2)) | 0 (ThT-inactive (N-Fold <2)) | TEM 2cat ([1]; Fig S10 panel D): 0; Rel. ThT ([2]; n-fold ThT fluorescence vs control (PBS, 10% DMSO), 4 µL 1 mg/mL fibrils + 20 µL 50 µM ThT, 15 min RT, ex 440 / em 488 nm, triplicate): 1.2; CR / % ([3]; conversion of monomer to nanostructures, 3 kDa MWCO filtration, fluorescamine, ex 365 / em 470 nm, triplicate): 48% |
| RGDCKFKFQF | 1 | 1 | 1 | 1 | 1 | 1 | 1 (ThT. Cat is 1, if Rel. ThT >2) | 1 (ThT. Cat is 1, if Rel. ThT >2) | 1 (ThT. Cat is 1, if Rel. ThT >2) | 1 (ThT. Cat is 1, if Rel. ThT >2) | 1 (ThT. Cat is 1, if Rel. ThT >2) | 85.5% | 85.47 | – | – | – | – | – | – |
